# No end group written: not given here.
# Columns and labels:
# Type in all cases: cell-based, human
# [1] = tested on: ImMucin specific T-cell subpopulation; test: Proliferation of the ImMucin-specific T-cell subpopulation after three stimulations; settings: one out of two experiments, four donors
# Source text: (§1) Thawed PBLs underwent 1st stimulation with ImMucin pulsed Autologues DC at a ratio of 20:1 and cultured for 7 days in dedicated T cell Medium. T cell medium contained RPMI medium supplemented with 10% FCS, L-Glutamine, Sodium Pyruvate, MEM-EAGLE non-essential amino-acids, HEPES and Gentamycin Sulphate (Bet-Haemek Industries, IL) as well as with 50 IU/ml of recombinant IL-7 (Cytolab IL). For the second stimulation, PBL were transferred to adherent autologues ImMucin-pulsed PBMC and cultured for additional 5 days in T cell Medium. At the end of the 5 days, medium was partial replaced with fresh medium containing 1 ug/ml of ImMucin and 50 IU/ml IL-2 for a third stimulation of 48 h at 37° C. Following the last stimulation ImMucin T cell line was checked for immune activation properties.
# Proliferation analysis was conducted in three different methods. In all three methods, plates were cultured for 3-5 days under visual control and then 0.5 […]Cu/well of 3[H] (Amersham) was added for additional culture of to 18 h at 37° C. In the last step, plates were harvested and the radioactive counts were measured in a □ counter. • 1. DC indirect presentation: In the first method, 100 µl of 2×10^6 thawed PBL were placed in U-shape Bottom 96 well plate (Nunc) with RPMI medium supplemented with 5% H AB serum, L-Glutamine, Sodium Pyruvate, MEM-EAGLE non-essential amino-acids, HEPES and Gentamycin. At the next stage 100 µl of 25×10^4 peptide-pulsed DC were added to each three wells of PBL and underwent proliferation analysis as described above. • 2. PBL direct presentation: In the 2nd method, 100 µl of 2×10^6 PBL were placed in Flat Bottom 96 well plates (Corning) and stimulated with different concentrations (0.05 ug/ml-2 ug/ml) of peptides. In the next step the cells underwent proliferation analysis as described above. • 3. PBMC direct presentation: In third method PNMC were used under similar conditions as described for the second method.
# (§2) For that purpose, an enriched ImMucin-specific T cell subpopulation was produced via repeated stimulation with ImMucin. The specificity of the subpopulation for ImMucin, as well as to the other VXL epitopes, was examined using proliferation assays, cytokine release assays, FACS analysis in which the percentage and type of cells enriched during the enrichment process was analyzed, and using a CTL assay against selected target cells.
# (§3) For producing the specific T cell subpopulation PBL were stimulated three times for 7, 5 and 2 days with ImMucin presented via DC and PBMC. Following the 3rd stimulation the cells were evaluated against the different VXL epitopes.
# [2] = tested on: T-Cell specific subpopulation (Clones); test: ELISA of cytokine secretion by the T-cell specific subpopulation (clones) stimulated with peptides; settings: two experiments, four donors
# Source text: as §1
# (§4) Cytokine release was studied during the culture of stimulated T-cells. The evaluated samples were collected from the T cell culture medium on day 2, 3, and 5 and stored until use at −20° C.
# (§5) […] of the selected capture antibody (e.g. anti-Hu IFN-Gamma, or anti-Hu TNF-alfa or anti IL-2) were added to each well at the final concentration of 5 μg/ml in PBS. Plates were incubated for 2 h at R.T. or over night at 4° C. Next, […] of blocking solution were added for an incubation of 2 h at R.T. […] of evaluated samples were added in duplicate into 2 wells for 2 hours at RT. After 2 h of incubation at R.T plates were washed λ4 times in washing solution. In the next step, a Biotin-conjugated detection antibody (relevant to coated antibody) was added at a final concentration of 10 μg/ml in total volume of 100 μl for 1 h at R.T. Finally, 100 μl/well working dilution (1:10000 in Blocker solution) of Streptavidin-HRP were added to each well and incubated for 1 h at R.T.
# (§6) Plates were washed λ6 times with PBS-Tween (0.4%) and 100 μl/well of TMB/E Solution (CHEMICON, Catalog #ES001) was added. The plates were then exposed until blue color appeared in the wells of the positive control and no color was detected in the blank wells. To stop the color reaction, 50 μl/well of 10% of Sulfuric acid was added. The plates were counted in ELISA-Reader using a 450 nm filter.
# as §2, §3
# PBL = test: ELISA of cytokine secretion by PBL stimulated once with peptide-pulsed DC
# Procedure: Human PBMC were separated from buffy coat samples of naive donors using Ficoll UNI-SEPmaxi tube. Separated cells were suspended in RPMI medium supplemented with 10% FCS, L-Glutamine, Sodium Pyruvate, MEM-EAGLE non-essential amino-acids, HEPES and Gentamycin Sulphate (Bet-Haemek Industries, IL) and cultivated for 4 h at 37° C. in a culture dish (Corning 150 mm×25 mm). Adherent cells were collected and cultured for 7 days in serum free DCCM-1 medium supplemented with L-Glutamine, huIL-4 (1000 IU/ml) (Cytolab IL) and GM-CSF-80 ug/ml (Cytolab IL). On day seven floating cells were collected and loaded with 50 ug/ml of examined peptide for 18 h at 37° C.
# as §4, §5, §6
# [3] = tested on: blood samples derived from naive donors; test: Summary: ImMucin specific activation in blood samples of naive donors; settings: out of 14 different blood samples from naive donors
# Source text: In summary, out of 14 different blood samples derived from naive donors, in 12 ImMucin specific activation could be observed. It is therefore clear that ImMucin is able to induce antigen specific CD4^+ as well as CD8^+ T cell activation which can lead to effective anti-tumor vaccine properties including lysis, cytokine release and memory in the majority of the population.
# [4] = peptide DC ratio 16:1, one out of five experiments, six donors
# [5] = peptide pulsed DC ratio 16:1, one out of two experiments, two donors (Table 12)
sequence,measurement,setting,value
MTPGTQSPFFLLLLLTVLTVV [ImMucin],IS (Average),[1],3.2
same,IS (Range),[1],2.2-4.2
same,IL-2 % of clones,[2],83%
same,INF-gamma % of clones,[2],90%
same,TNF-Alfa % of clones,[2],90%
same,TNF-Alfa Range,[2],2.7 to 8.9 ng/mL
same,IL-2,PBL; [4],3.62 ng/mL
same,TNF-Alfa,PBL; [4],11.6 ng/mL
same,IFN-gamma,PBL; [5],0.5 ng/mL
same,TNF-Alfa,PBL; [5],11.6 ng/mL
same,blood samples in which ImMucin specific activation could be observed,[3],12

# Source: patent US11179452B2, “Antigen specific multi epitope vaccines” (priority 2006, dated 2021)
